Assay results taken from patent publication US20240390438A1, “PROBIOTICS SEPARATED FROM RABBIT FECES AND FOOD CONTAINING PROBIOTICS” (AGENT Innovation Co., Ltd., priority 2021, published 2024).
≈ marks a conversion by molar mass, not a printed value.

Tests used:
Bacillus cereus [1] = test: Agar diffusion method-2 (cell-free solution); assay type: cell-based; conditions: colonies as cell-free solution in holes of TSA; ddH2O control 8
Experimental: (§1) Firstly, the CFSs (containing metabolites) were prepared. Besides, when probiotics break down fiber and convert the fiber into metabolites, the metabolites are postbiotics.
(§2) Next, the pathogenic bacteria described above were also cultured with 37° C. until the concentration thereof reached 1×10^8 CFU/mL, respectively. 100 μL bacterial solutions of the pathogenic bacteria described above were evenly plated on Tryptone Soy Agar (TSA) and stay for 10 minutes. Then, tips were used to form several holes in the TSA. Subsequently, 100 μL bacterial solutions of the colonies described above were added into the holes and then cultured at 37° C. for 12 hours.
(§3) This experiment is designed that the CFSs in the holes prevent the pathogenic bacteria on the plates from growing. Therefore, the larger zone indicates the better antibacterial effect.

Escherichia coli (ETEC) [2] = test: Agar diffusion method-2 (cell-free solution); assay type: cell-based; conditions: colonies as cell-free solution in holes of TSA; ddH2O control 8
Experimental: as §1, §2, §3

Klebsiella pneumoniae [3] = test: Agar diffusion method-2 (cell-free solution); assay type: cell-based; conditions: colonies as cell-free solution in holes of TSA; ddH2O control 8
Experimental: as §1, §2, §3

Pseudomonas aeruginosa [4] = test: Agar diffusion method-2 (cell-free solution); assay type: cell-based; conditions: colonies as cell-free solution in holes of TSA; ddH2O control 8
Experimental: as §1, §2, §3

Salmonella enterica [5] = test: Agar diffusion method-2 (cell-free solution); assay type: cell-based; conditions: colonies as cell-free solution in holes of TSA; ddH2O control 8
Experimental: as §1, §2, §3

Shigella sonnei [6] = test: Agar diffusion method-2 (cell-free solution); assay type: cell-based; conditions: colonies as cell-free solution in holes of TSA; ddH2O control 8
Experimental: as §1, §2, §3

Streptococcus pneumoniae [7] = test: Agar diffusion method-2 (cell-free solution); assay type: cell-based; conditions: colonies as cell-free solution in holes of TSA; ddH2O control 8
Experimental: as §1, §2, §3

Shigella sonnei [8] = test: Minimum inhibitory concentration and minimum bacterial concentration; assay type: cell-based; conditions: antibiotics; for MIC: 37 C 24 h, OD600; for MBC: plated on nutrient agar 48-72 h
Experimental: (§4) Minimum inhibitory concentration (MIC) refers to the minimum concentration at which the development of bacteria can be blocked and antibacterial resistance can be observed after cultured. The lower MIC means the better effect on bacteria.
(§5) The supernatants of the cultured colonies described above were collected, as cell-free solutions (CFSs), by centrifuge at 5000 rpm after cultured the colonies in a nutrient broth and shaking at 37° C. for 48 hours.
(§6) Next, 100 μL each of the CFSs and 100 μL bacterial solutions of the pathogenic bacteria were respectively added to each well of a 96-well plate. Thus, the total volume in each well was 200 μL. The tested pathogenic bacteria included Salmonella enterica, Shigella sonnei, Klebsiella pneumoniae, Streptococcus pneumoniae, Bacillus cereus, Staphylococcus aureus, Pseudomonas aeruginosa, and Escherichia coli.
(§7) As well, 100 μL each of the nutrient broth containing Ampicillin or Kanamycin and 100 μL bacterial solutions of the pathogenic bacteria were respectively added to each well of a 96-well plate. Thus, the total volume in each well was 200 μL.
(§8) Then, initial values of OD600 in each well were recorded. Subsequently, the 96-well plates were cultured at 37° C. for 24 hours, and the OD600 values thereof were re-recorded for determining the MICs of each colony described above.
(§9) Finally, 100 μL CFSs of the next three concentrations […] MIC were taken to be plated on nutrient agar and then cultured at 37° C. for 48-72 hours. The concentrations of the CFSs that no colonies grown on nutrient agar were determined to be the minimum bacterial concentration (MBCs).

Staphylococcus aureus [9] = test: as above; assay type: cell-based; conditions: antibiotics; for MIC: 37 C 24 h, OD600; for MBC: plated on nutrient agar 48-72 h
Experimental: as §4, §5, §6, §7, §8, §9

Colony LP19 = test: Antibiotic susceptibility test; assay type: cell-based, Lactiplantibacillus Plantarum; conditions: for MIC: Lactiplantibacillus plantarum, LP19, 24 h, read-out: Minimum inhibitory concentration of the antibiotic to LP19, 96-well, 37 C 24 h, OD600
Source text: (§10) To test bacterial susceptibility to antibiotics, such as Aminoglycosides antibiotics, Sulfonamide antibiotics, Quinolone antibiotics, Ampicillin, Cefotaxime, Chloramphenicol, Erythromycin, Rifampicin and Tetracycline, the experimental protocol were as follow. Further, the Quinolone antibiotics comprise Ciprofloxacin, the Aminoglycosides antibiotics comprise Kanamycin and […], and the Sulfonamide antibiotics comprise Sulfamethoxazole. […] The initial absorbance at 600 nm (OD600) of each well was recorded. Then, the 96-well plates were placed at 37° C. and cultured for 24 hours. Next, the OD600 of each well was measured again to determine minimum inhibitory concentration.

Colony LP1 = test: Antibiotic susceptibility test; assay type: cell-based, Lactiplantibacillus Plantarum; conditions: for MIC: Lactiplantibacillus plantarum, LP1, 24 h, read-out: Minimum inhibitory concentration of the antibiotic to LP1, 96-well, 37 C 24 h, OD600
Source text: as §10

Colony LP2 = test: Antibiotic susceptibility test; assay type: cell-based, Lactiplantibacillus Plantarum; conditions: 96-well, 37 C 24 h, OD600; for MIC: Lactiplantibacillus plantarum, LP2, 24 h, read-out: Minimum inhibitory concentration of the antibiotic to LP2
Source text: as §10

Colony LP5 = test: Antibiotic susceptibility test; assay type: cell-based, Lactiplantibacillus Plantarum; conditions: for MIC: Lactiplantibacillus plantarum, LP5, 24 h, read-out: Minimum inhibitory concentration of the antibiotic to LP5, 96-well, 37 C 24 h, OD600
Source text: as §10

Colony PTA22 = test: Antibiotic susceptibility test; assay type: cell-based, Lactiplantibacillus Plantarum; conditions: for MIC: Lactiplantibacillus plantarum, PTA22, 24 h, read-out: Minimum inhibitory concentration of the antibiotic to PTA22, 96-well, 37 C 24 h, OD600
Source text: as §10

L. pl 24-2L = conditions: from Georgieva et al., 2015; cited from earlier work
L. pl 24-5D = conditions: from Georgieva et al., 2015; cited from earlier work
L. plantarum 299 = conditions: from Klarin et al., 2019; cited from earlier work
L. plantarum 299v = conditions: from Klarin et al., 2019; cited from earlier work
species L. plantarum = conditions: EFSA (2005); cited from earlier work
Staphylococcus aureus [10] = test: Agar diffusion method-2 (cell-free solution); assay type: cell-based; conditions: colonies as cell-free solution in holes of TSA; ddH2O control 8
Experimental: as §1, §2, §3

Salmonella enterica [11] = test: Minimum inhibitory concentration and minimum bacterial concentration; assay type: cell-based
Bacillus cereus [12] = test: as above; assay type: cell-based; conditions: antibiotics
Experimental: as §4, §5, §6, §7, §8, §9

Escherichia coli (ETEC) [13] = test: as above; assay type: cell-based; conditions: antibiotics
Experimental: as §4, §5, §6, §7, §8, §9

Klebsiella pneumoniae [14] = test: as above; assay type: cell-based; conditions: antibiotics
Experimental: as §4, §5, §6, §7, §8, §9

Pseudomonas aeruginosa [15] = test: as above; assay type: cell-based; conditions: antibiotics
Experimental: as §4, §5, §6, §7, §8, §9

Streptococcus pneumoniae [16] = test: as above; assay type: cell-based; conditions: antibiotics
Experimental: as §4, §5, §6, §7, §8, §9

[17] = plated on nutrient agar 48-72 h

Structure (SMILES)	Inhibitory zone, Bacillus Cereus (Bacillus cereus [1])	Inhibitory zone, Escherichia coli (ETEC) (Escherichia coli (ETEC) [2])	Inhibitory zone, Klebsiella Pneumoniae (Klebsiella pneumoniae [3])	Inhibitory zone, Pseudomonas Aeruginosa (Pseudomonas aeruginosa [4])	Inhibitory zone, Salmonella Enterica (Salmonella enterica [5])	Inhibitory zone, Shigella Sonnei (Shigella sonnei [6])	Inhibitory zone, Streptococcus Pneumoniae (Streptococcus pneumoniae [7])	MIC (Shigella sonnei [8])	MBC (Shigella sonnei [8])	MIC (Staphylococcus aureus [9])	MBC (Staphylococcus aureus [9])	MIC (Colony LP19)	MIC (Colony LP1)	MIC (Colony LP2)	MIC (Colony LP5)	MIC (Colony PTA22)	also measured
CC1(C)S[C@@H]2[C@H](NC(=O)[C@H](N)c3ccccc3)C(=O)N2[C@H]1C(=O)O [Ampicillin]	8 mm	8 mm	8 mm	8 mm	8 mm	12 mm	8 mm	8 µg/mL (≈ 22.9 µM)	16 µg/mL (≈ 45.8 µM)	0.5 µg/mL (≈ 1.43 µM)	1 µg/mL (≈ 2.86 µM)	0.25 µg/mL (≈ 0.715 µM)	0.125 µg/mL (≈ 0.358 µM)	0.25 µg/mL (≈ 0.715 µM)	0.25 µg/mL (≈ 0.715 µM)	0.5 µg/mL (≈ 1.43 µM)	Minimum inhibitory concentration of the antibiotic to L. pl 24-2L (L. pl 24-2L): 0.38 µg/mL; Minimum inhibitory concentration of the antibiotic to L. pl 24-5D (L. pl 24-5D): 1 µg/mL; Minimum inhibitory concentration of the antibiotic to L. plantarum 299 (L. plantarum 299): 0.094 µg/mL; Minimum inhibitory concentration of the antibiotic to L. plantarum 299v (L. plantarum 299v): 0.094 µg/mL; EFSA, MIC breakpoints species L. plantarum (species L. plantarum): 4 µg/mL
NC[C@H]1O[C@H](O[C@H]2[C@H](O)[C@@H](O[C@H]3O[C@H](CO)[C@@H](O)[C@H](N)[C@H]3O)[C@H](N)C[C@@H]2N)[C@H](O)[C@@H](O)[C@@H]1O [Kanamycin]	20 mm	17 mm	20 mm	20 mm	16 mm	20 mm	20 mm	16 µg/mL (≈ 33 µM)	64 µg/mL (≈ 132 µM)	4 µg/mL (≈ 8.26 µM)	8 µg/mL (≈ 16.5 µM)	> 256 µg/mL	> 256 µg/mL	> 256 µg/mL	> 256 µg/mL	> 256 µg/mL	Inhibitory zone, Staphylococcus Aureus (Staphylococcus aureus [10]): 23 mm; MIC (Salmonella enterica [11]; 24 h, read-out: MIC, Salmonella Enterica): 64 µg/mL (≈ 132 µM); MBC (Salmonella enterica [11]; antibiotics, plated on nutrient agar 48-72 h): 128 µg/mL (≈ 264 µM); MIC (Bacillus cereus [12]; 37 C 24 h, OD600): 256 µg/mL (≈ 528 µM); MBC (Bacillus cereus [12]; [17]): > 256 µg/mL; MIC (Escherichia coli (ETEC) [13]; 37 C 24 h, OD600): 64 µg/mL (≈ 132 µM); MBC (Escherichia coli (ETEC) [13]; [17]): 128 µg/mL (≈ 264 µM); MIC (Klebsiella pneumoniae [14]; 37 C 24 h, OD600): 32 µg/mL (≈ 66 µM); MBC (Klebsiella pneumoniae [14]; [17]): 64 µg/mL (≈ 132 µM); MIC (Pseudomonas aeruginosa [15]; 37 C 24 h, OD600): 8 µg/mL (≈ 16.5 µM); MBC (Pseudomonas aeruginosa [15]; [17]): 16 µg/mL (≈ 33 µM); MIC (Streptococcus pneumoniae [16]; 37 C 24 h, OD600): 8 µg/mL (≈ 16.5 µM); MBC (Streptococcus pneumoniae [16]; [17]): 16 µg/mL (≈ 33 µM); Minimum inhibitory concentration of the antibiotic to LP19 (Colony LP19; 96-well, 37 C 24 h, OD600): >256 µg/mL; Minimum inhibitory concentration of the antibiotic to LP1 (Colony LP1; 96-well, 37 C 24 h, OD600): >256 µg/mL; Minimum inhibitory concentration of the antibiotic to LP2 (Colony LP2): >256 µg/mL; Minimum inhibitory concentration of the antibiotic to LP5 (Colony LP5; 96-well, 37 C 24 h, OD600): >256 µg/mL; Minimum inhibitory concentration of the antibiotic to PTA22 (Colony PTA22; 96-well, 37 C 24 h, OD600): >256 µg/mL
